Read-outs that look alike come from different tables or passages of the source.
Columns and labels:
CTLA4 gene = assay: gRNA cleavage activity, T7E1 mismatch detection assay in K562 cells; format: cell-based, human; details: CRISPR/Cas9, agarose gel after T7E1
Text: (§1) Two gRNA candidates were selected for each target gene and their cleavage efficacies in K562 cells determined. The sequences of the gRNA candidates are shown in Table 1 and the Protospacer Adjacent Motif (PAM) relates to the last 3 bases of the sequence. The flanking regions of the gRNA sequences on the LIR2 gene (SEQ ID NO: 1; amino acid translation SEQ ID NO: 2) and the CTLA4 gene (SEQ ID NO: 7; amino acid translation SEQ ID NO: 8) are shown in FIGS. 1 and 2, respectively.
(§2) K562 cells were transfected with the prepared gRNA constructs (FIG. 3) and subsequently harvested for PCR amplification. The presence of GFP expression was used to report successful incorporation of the gRNA construct into the K562 cells. This confirmed expression of the Cas9 gene and therefore the ability to knock out expression of the LIR2 and CTLA4 genes.
(§3) The cleavage activity of the gRNA constructs was determined using an in vitro mismatch detection assay. T7E1 endonuclease I recognizes and cleaves non-perfectly matched DNA, allowing the parental LIR2 and CTLA4 genes to be compared to the mutated genes following CRISPR/Cas9 transfection and non-homologous end joining (NHEJ).

DR5 [1] = details: 24 hours
Protocol: Bortezomib was bought from Millennium Pharmaceuticals. Mouse anti-human DR5-AF647 (catalog number: 565498) was bought from BD Pharmingen. The stained cell samples were analyzed on BD FACS Canto II.

MM1.S cells [2] = assay: Bortezomib-induced sensitization of MM1.S cells to KHYG-1 cells expressing TRAIL variant; format: cell-based; details: MM1.S pretreated with 2.5 nM for 24 hours, 1:1 ratio, 12 hours co-culture
Protocol: (2) 6 hours after electroporation of TRAIL variant mRNA, KHYG-1 cells were then cultured with MM cells in 12-well plate. After washing, cell concentrations were adjusted to 1×10^6/mL, before mixing KHYG-1 and MM1.S cells at 1:1 ratio to culture for 12 hours. (3) Flow cytometric analysis of the cytotoxicity of KHYG-1 cells was carried out. The co-cultured cells were collected, washed and then stained with CD2-APC antibody (5 uL/test), AnnexinV-FITC (5 uL/test) and SYTOX-Green (5 uL/test) using AnnexinV binding buffer. (4) Data were further analyzed using FlowJo 7.6.2 software. CD2-negative population represents MM.1S cells. KHYG-1 cells are strongly positive for CD2. Finally, the AnnexinV-FITC and SYTOX-Green positive cells in the CD2-negative population were analyzed.

KHYG-1 cells = assay: KHYG-1 cell viability after CMA treatment; format: cell-based; details: 100 nM CMA or vehicle
MM1.S cells [3] = assay: Cytotoxicity of KHYG-1 cells with/without TRAIL variant in the presence of CMA; format: cell-based; details: 100 mM CMA for 2 hours, 1:1 ratio, 12 hours
Protocol: KHYG-1 cells were transfected with the TRAIL variant (TRAIL D269H/E195R), as described above in Example 6. (1) MM1.S cells were used as target cells. (2) 6 hours after electroporation of TRAIL mRNA, KHYG-1 cells were treated with […] CMA or an equal volume of vehicle for 2 hours. […] (5) The KHYG-1 and MM1.S cells were mixed at 1:1 ratio and co-cultured for 12 hours. (6) Flow cytometric analysis of the cytotoxicity of KHYG-1 cells was carried out. The co-cultured cells were washed and stained with CD2-APC antibody (5 uL/test). (7) After washing, further staining was performed with AnnexinV-FITC (5 uL/test) and SYTOX-Green (5 uL/test) using AnnexinV binding buffer. (8) Data were further analyzed using FlowJo 7.6.2 software. CD2-negative population represents MM1.S cells. KHYG-1 cells are strongly positive for CD2. The AnnexinV-FITC and SYTOX-Green positive cells in CD2-negative population were then analyzed.

perforin = assay: CMA-induced reduction of perforin expression in KHYG-1 cells; format: cell-based, human; details: 100 nM for 2 hours
Protocol: Mouse anti-human perforin-AF647 (catalog number: 563576) was bought from BD Pharmingen. Concanamycin A (catalog number: SC-202111) was bought from Santa Cruz Biotechnology. The stained cell samples were analyzed using a BD FACS Canto II. […] (2) KHYG-1 cells (6 hours after electroporation, cultured in penicillin/streptomycin free RPMI1640 medium) were further treated with 100 nM CMA or equal volume of vehicle (DMSO) for 2 hours. (3) The cells were collected (1×10^6 cells/test) by centrifugation (1500 rpm×5 minutes) and the supernatant was aspirated. (4) The cells were fixed in 4% paraformaldehyde in PBS solution at room temperature for 15 minutes. (5) The cells were washed with 4 mL of FACS Buffer (PBS, 0.5-1% BSA, 0.1% sodium azide) twice. (6) The cells were permeabilized with 1 mL of PBS/0.1% saponin buffer for 30 minutes at room temperature. (7) The cells were washed with 4 mL of PBS/0.1% saponin buffer. (8) The cells were re-suspended in 100 uL of PBS/0.1% saponin buffer, before adding 5 uL of the antibody to each tube and incubating for 30 minutes on ice. (9) The cells were washed with PBS/0.1% saponin buffer 3 times by centrifugation at 1500 rpm for 5 minutes. (10) The cells were re-suspended in 500 uL of ice cold FACS Buffer and kept in the dark on ice or at 4° C. in a fridge briefly until analysis. (11) The cells were analyzed on the flow cytometer (BD FACS Canto II). […]

LIR2 gene = assay: gRNA cleavage activity, T7E1 mismatch detection assay in K562 cells; format: cell-based, human; details: CRISPR/Cas9, agarose gel after T7E1
Text: as §1, §2, §3
The three bands corresponding to each mutation relate to the parental gene and the two resulting strands following detection of a mismatch in the DNA sequence after transfection.

DR4 = DR4 (Homo sapiens, UniProt O00220); details: surface plasmon resonance; cited from earlier work
decoy receptor DcR1 = biological target: T1, decoy receptor DcR1 (Homo sapiens, UniProt O14798); details: surface plasmon resonance; cited from earlier work
T1 sequence (O14798 26-236): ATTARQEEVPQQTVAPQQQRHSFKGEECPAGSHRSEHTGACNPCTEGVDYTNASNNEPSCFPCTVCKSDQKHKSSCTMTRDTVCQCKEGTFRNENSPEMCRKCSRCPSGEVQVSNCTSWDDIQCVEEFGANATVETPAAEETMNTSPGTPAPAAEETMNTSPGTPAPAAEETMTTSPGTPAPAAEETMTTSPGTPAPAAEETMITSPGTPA

DcR1 = biological target: T2, DcR1 (Homo sapiens, UniProt O14798); details: D269H/E195R mutation vs wildtype TRAIL; cited from earlier work
T2 sequence (O14798 26-236): T1 sequence (O14798 26-236)

DR5 [4] = biological target: DR5 (Homo sapiens, UniProt O14763); details: D269H/E195R mutation vs wildtype TRAIL; cited from earlier work
DcR2 = biological target: T3, DcR2 (Homo sapiens, UniProt Q9UBN6); details: D269H/E195R mutation vs wildtype TRAIL; cited from earlier work
T3 sequence (Q9UBN6 56-386): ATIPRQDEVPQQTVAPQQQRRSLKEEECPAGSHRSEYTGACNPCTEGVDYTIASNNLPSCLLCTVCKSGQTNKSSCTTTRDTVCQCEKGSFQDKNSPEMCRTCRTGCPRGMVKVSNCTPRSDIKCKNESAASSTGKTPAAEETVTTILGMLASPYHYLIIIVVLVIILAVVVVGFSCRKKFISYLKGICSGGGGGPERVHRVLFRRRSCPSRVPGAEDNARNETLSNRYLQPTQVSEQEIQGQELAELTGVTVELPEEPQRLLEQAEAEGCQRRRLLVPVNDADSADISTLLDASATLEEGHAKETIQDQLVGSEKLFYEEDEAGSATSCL

For “g7 gRNA: gRNA candidate targeting hCTLA4, CACTCACCTTTGCAGAAGACAGG (SEQ ID NO: 9) (expressed or natural sequence; listed as Homo sapiens)”, the “gRNA cleavage efficiency at CTLA4 (T7E1)” value (CTLA4 gene) was 32%.

With “g15 gRNA: gRNA candidate targeting hCTLA4, CCTTGTGCCGCTGAAATCCAAGG (SEQ ID NO: 10) (expressed or natural sequence; listed as Homo sapiens)” the “gRNA cleavage efficiency at CTLA4 (T7E1)” value (CTLA4 gene) was 26%.

For CC(C)C[C@H](NC(=O)[C@H](Cc1ccccc1)NC(=O)c1cnccn1)B(O)O [Bortezomib], the DR5 expression (DR5 [1]; MM1.S cells, low dose) was “increase”, the DR5 expression (DR5 [1]; MM cells, high doses) was “could not be upregulated” and the DR5 expression (DR5 [1]; RPMI8226 cells, low dose) was “increase”. For the same molecule, the “sensitivity of MM cells to KHYG-1 cells expressing the TRAIL variant” value (MM1.S cells [2]) was “induced sensitivity”.

For C/C=C/[C@H]1O[C@@](O)([C@@H](C)[C@H](O)[C@H](C)[C@H]2OC(=O)/C(OC)=C/C(C)=C/[C@@H](C)[C@@H](O)[C@@H](CC)[C@@H](O)[C@H](C)C/C(C)=C/C=C/[C@@H]2OC)C[C@@H](O[C@H]2C[C@@H](O)[C@H](OC(N)=O)[C@@H](C)O2)[C@@H]1C [CMA, Concanamycin A], the “viability of KHYG-1 cells” value (KHYG-1 cells) was “no negative effects”, the “effect of CMA on cytotoxic activity of NK cells expressing TRAIL variant” value (MM1.S cells [3]) was “unable to significantly diminish” and the perforin expression level (perforin) was “significantly decreased”.

For “g9 gRNA: gRNA candidate targeting hLIR2, GAGTCACAGGTGGCATTTGGCGG (SEQ ID NO: 3) (expressed or natural sequence; listed as Homo sapiens)”, the “gRNA cleavage efficiency (LIR2 knockout)” value (LIR2 gene) was 11%.

For “Wildtype TRAIL: wildtype TRAIL ligand (CD253)”, the Kd (DR4) is listed as > 2 nM and the Kd (decoy receptor DcR1) is listed as > 20 nM.

With “g18 gRNA: gRNA candidate targeting hLIR2, CGAATCGCAGGTGGTCGCACAGG (SEQ ID NO: 4) (expressed or natural sequence; listed as Homo sapiens)” the “gRNA cleavage efficiency (LIR2 knockout)” value (LIR2 gene) was 10%.

B1: TRAIL variant: described in WO 2009/077857; encoded by the wildtype TRAIL gene containing the D269H/E195R mutation (protein)
chain: MAMMEVQGGPSLGQTCVLIVIFTVLLQSLCVAVTYVYFTNELKQMQDKYSKSGIACFLKEDDSYWDPNDEESMNSPCWQVKWQLRQLVRKMILRTSEETISTVQEKQQNISPLVRERGPQRVAAHITGTRGRSNTLSSPNSKNEKALGRKINSWESSRSGHSFLSNLHLRNGELVIHEKGFYYIYSQTYFRFQERIKENTKNDKQMVQYIYKYTSYPDPILLMKSARNSCWSKDAEYGLYSIYQGGIFELKENDRIFVSVTNEHLIDMHHEASFFGAFLVG
In the case of B1, the “affinity for decoy receptor DcR1” value (DcR1) is listed as “reducing the affinity”, the “affinity for DR5” value (DR5 [4]) is listed as “significantly increases the affinity” and the “affinity for decoy receptor DcR2” value (DcR2) is listed as “reducing the affinity”.
